Laboratory results from PMC10143822, “Structural Adaptation of the Single-Stranded DNA-Binding Protein C-Terminal to DNA Metabolizing Partners Guides Inhibitor Design” (Pharmaceutics, 2023).
Where a SMILES comes first, the peptide text is derived from it. Where no end group is shown, it is not given here. [ ]: non-standard residue; d: D form. Phe(4-CF3) = N[C@@H](Cc1ccc(C(F)(F)F)cc1)C(=O)O; Phe(4-Cl) = N[C@@H](Cc1ccc(Cl)cc1)C(=O)O; NMeF = CN[C@@H](Cc1ccccc1)C(=O)O; β3hI = CC[C@H](C)[C@H](N)CC(=O)O; Tic = O=C(O)[C@@H]1Cc2ccccc2CN1; NMeD = CN[C@@H](CC(=O)O)C(=O)O; β3hD = NC(CC(=O)O)CC(=O)O

Assays:
RecO = target: T1, RecO (Escherichia coli, UniProt P0A7H3); test: biochemical; format: binding; conditions: 0.5 μM RecO, 50 nM F-wtSSB tracer, 0–500 μM unlabeled peptide, 30 min room temperature; 20 mM Tris-HCl pH 8.0, 200 mM NaCl, 10% glycerol, 0.01% Triton-X 100; 25 °C; triplicate; read-out: IC50 on RecO, competitive fluorescence anisotropy
T1 construct: His-tag (TEV site) (N, cleaved yes); made in house; host or cells: E. coli Rosetta cells
Experimental: (§1) Triplicate measurements were performed using a Clariostar Plus Microplate Reader in 384-well plates for all fluorescence anisotropy (FA) experiments. The settings were 25 °C, excitation at 485 nm, emission at 510 nm, settling time of 0.2 s, and 200 flashes per well.
(§2) Competition fluorescence anisotropy experiments were carried out as follows: protein (0.5 μM either ExoI or RecO) was incubated with 50 nM F-wtSSB peptide and 0–500 μM unlabeled wtSSB (or a variant) peptide for 30 min at room temperature. For direct fluorescence anisotropy measurements, 16 µM ExoI and 7.5 µM RecO were used in the first well. After serial dilution, either 50 nM of F-mSSB or F-sSSB was added to the wells and then incubated for 30 min. Buffers used included 20 mM Tris-HCl (pH 8.0), 100 mM NaCl, 1 mM MgCl2, 1 mM 2-mercaptoethanol, 10% (v/v) glycerol, for ExoI and 20 mM Tris-HCl (pH 8.0), 200 mM NaCl, 1 mM 2-mercaptoethanol, 10% (v/v) glycerol, and 0.01% Triton-X 100 for RecO [37].
(§3) Fluorescence anisotropy values were normalized and are shown as bound fractions (BF, %). BF=r−rmin/λ(rmax−r)+r−rmin, I=2∗PG+S, r=S−PG/I, where r: anisotropy, I: total intensity, P: perpendicular intensity, S: parallel intensity, G: an instrument factor set to 1, BF: ligand fraction bound, and λ=λbound/λunbound=1 .
(§4) Competitive fluorescence anisotropy was analyzed in Origin Pro 9.5, and IC50 values were determined using the Logistic Nonlinear fit function and are shown as plots for each mutated position for each protein in Figures S4 and S6. EC50 values from direct fluorescence anisotropy titrations were plotted in Origin 9.5. Values were determined using the Logistics Nonlinear fit function.

ExoI = target: T2, ExoI (Escherichia coli, UniProt P04995); test: biochemical; format: binding, E. coli
T2 construct: His-tag (cleaved yes); host or cells: E. coli BL21 (DE3) pLysS
Experimental: as §1, §2, §3, §4

T1 sequence (P0A7H3 whole entry): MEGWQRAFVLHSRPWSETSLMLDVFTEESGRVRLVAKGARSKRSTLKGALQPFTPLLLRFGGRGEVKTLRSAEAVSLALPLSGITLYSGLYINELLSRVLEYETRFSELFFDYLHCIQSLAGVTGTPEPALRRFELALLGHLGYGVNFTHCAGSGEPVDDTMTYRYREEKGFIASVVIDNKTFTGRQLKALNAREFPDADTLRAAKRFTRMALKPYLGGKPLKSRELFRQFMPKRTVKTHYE
T2 sequence (P04995 whole entry): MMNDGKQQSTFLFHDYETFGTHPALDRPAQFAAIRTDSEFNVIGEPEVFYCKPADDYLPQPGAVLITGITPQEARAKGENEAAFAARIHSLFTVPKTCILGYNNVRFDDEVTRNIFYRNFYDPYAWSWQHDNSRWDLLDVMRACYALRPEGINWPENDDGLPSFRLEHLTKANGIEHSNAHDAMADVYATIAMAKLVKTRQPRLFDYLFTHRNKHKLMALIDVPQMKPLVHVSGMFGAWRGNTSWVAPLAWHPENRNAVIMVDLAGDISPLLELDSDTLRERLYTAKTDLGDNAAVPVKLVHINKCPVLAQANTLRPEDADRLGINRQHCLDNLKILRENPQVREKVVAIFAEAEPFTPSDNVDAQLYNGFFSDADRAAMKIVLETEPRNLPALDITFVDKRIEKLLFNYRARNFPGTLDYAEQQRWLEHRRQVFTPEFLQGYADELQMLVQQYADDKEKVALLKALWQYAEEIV

Compound	IC50 (RecO) [µM]	IC50 (ExoI) [µM]
CC[C@H](C)[C@H](NC(=O)[C@H](CC(=O)O)NC(=O)[C@H](CC(=O)O)NC(=O)[C@H](CC(=O)O)NC(=O)[C@H](Cc1ccccc1)NC(=O)[C@H](CC(=O)O)NC(C)=O)C(=O)N1CCC[C@H]1C(=O)N1Cc2ccccc2C[C@H]1C(=O)O [Tic8] (Ac-DFDDDIP[Tic]-OH)	141 ± 8.37	96.1 ± 83.8
Ac-NFDDDIPF [Asn1]	13.8 ± 17.2	9.31 ± 0.4
CC[C@H](C)[C@H](NC(=O)[C@H](CC(=O)O)NC(=O)[C@H](CC(=O)O)NC(=O)[C@H](CC(=O)O)NC(=O)[C@H](Cc1ccccc1)NC(=O)[C@H](CC(=O)O)NC(C)=O)C(=O)N1CCC[C@H]1C(=O)N(C)[C@@H](Cc1ccccc1)C(=O)O [NM-Phe8] (Ac-DFDDDIP[NMeF]-OH)	64.7 ± 18.9	
CC[C@H](C)[C@H](NC(=O)[C@H](CC(=O)O)NC(=O)[C@H](CC(=O)O)NC(=O)[C@H](CC(=O)O)NC(=O)[C@H](Cc1ccc(Cl)cc1)NC(=O)[C@H](CC(=O)O)NC(C)=O)C(=O)N1CCC[C@H]1C(=O)N[C@@H](Cc1ccccc1)C(=O)O [4-Cl-Phe2] (Ac-D[Phe(4-Cl)]DDDIPF-OH)	2.38 ± 0.27	
CC[C@H](C)[C@H](NC(=O)[C@H](CC(=O)O)NC(=O)[C@H](CC(=O)O)NC(=O)[C@H](CC(=O)O)NC(=O)[C@H](Cc1ccccc1)NC(=O)[C@H](CC(=O)O)N(C)C(C)=O)C(=O)N1CCC[C@H]1C(=O)N[C@@H](Cc1ccccc1)C(=O)O [NM-Asp1] (Ac-[NMeD]FDDDIPF-OH)	5.1 ± 0.64	2.17 ± 0.15
Ac-DFDNDIPF [Asn4]	15.7 ± 3.54	6.02 ± 0.3
CC[C@H](C)[C@H](NC(=O)[C@H](CC(=O)O)NC(=O)[C@H](CC(=O)O)NC(=O)[C@H](CC(=O)O)NC(=O)[C@H](Cc1ccccc1)N(C)C(=O)[C@H](CC(=O)O)NC(C)=O)C(=O)N1CCC[C@H]1C(=O)N[C@@H](Cc1ccccc1)C(=O)O [NM-Phe2] (Ac-D[NMeF]DDDIPF-OH)	3.33 ± 0.35	5.37 ± 0.53
CC[C@H](C)[C@@H](CC(=O)N1CCC[C@H]1C(=O)N[C@@H](Cc1ccccc1)C(=O)O)NC(=O)[C@H](CC(=O)O)NC(=O)[C@H](CC(=O)O)NC(=O)[C@H](CC(=O)O)NC(=O)[C@H](Cc1ccccc1)NC(=O)[C@H](CC(=O)O)NC(C)=O [β3-Ile6] (Ac-DFDDD[β3hI]PF-OH)	19.2 ± 7.47	11.28 ± 0.03
CC[C@H](C)[C@H](NC(=O)[C@H](CC(=O)O)NC(=O)[C@@H](CC(=O)O)NC(=O)[C@H](CC(=O)O)NC(=O)[C@H](Cc1ccccc1)NC(=O)[C@H](CC(=O)O)NC(C)=O)C(=O)N1CCC[C@H]1C(=O)N[C@@H](Cc1ccccc1)C(=O)O [D-Asp4] (Ac-DFD[dD]DIPF-OH)	5.92 ± 0.91	3.08 ± 0.07
CC[C@@H](C)[C@@H](NC(=O)[C@H](CC(=O)O)NC(=O)[C@H](CC(=O)O)NC(=O)[C@H](CC(=O)O)NC(=O)[C@H](Cc1ccccc1)NC(=O)[C@H](CC(=O)O)NC(C)=O)C(=O)N1CCC[C@H]1C(=O)N[C@@H](Cc1ccccc1)C(=O)O [D-Ile6] (Ac-DFDDD[dI]PF-OH)		56 ± 18.4
Ac-DFEDDIPF [Glu3]	5.81 ± 1.65	4.03 ± 0.24
Ac-EFDDDIPF [Glu1]	5.17 ± 1.1	1.33 ± 0.09
CC[C@H](C)[C@H](NC(=O)C[C@H](CC(=O)O)NC(=O)[C@H](CC(=O)O)NC(=O)[C@H](CC(=O)O)NC(=O)[C@H](Cc1ccccc1)NC(=O)[C@H](CC(=O)O)NC(C)=O)C(=O)N1CCC[C@H]1C(=O)N[C@@H](Cc1ccccc1)C(=O)O [β3-Asp5] (Ac-DFDD[β3hD]IPF-OH)	5.91 ± 0.68	13.9 ± 6.11
CC[C@H](C)[C@H](NC(=O)[C@H](CC(=O)O)NC(=O)[C@H](CC(=O)O)NC(=O)[C@H](CC(=O)O)NC(=O)[C@H](Cc1ccc(C(F)(F)F)cc1)NC(=O)[C@H](CC(=O)O)NC(C)=O)C(=O)N1CCC[C@H]1C(=O)N[C@@H](Cc1ccccc1)C(=O)O [4-CF3-Phe2] (Ac-D[Phe(4-CF3)]DDDIPF-OH)	3.27 ± 0.42	
CC[C@H](C)[C@H](NC(=O)[C@H](CC(=O)O)NC(=O)[C@H](CC(=O)O)NC(=O)[C@H](CC(=O)O)NC(=O)[C@H](Cc1ccccc1)NC(=O)[C@H](CC(=O)O)NC(C)=O)C(=O)N1CCC[C@H]1C(=O)N[C@@H](Cc1ccc(Cl)cc1)C(=O)O [4-Cl-Phe8] (Ac-DFDDDIP[Phe(4-Cl)]-OH)	3.62 ± 0.84	1.41 ± 0.18
